One series deals with QG56 cells. The experiment in a line: BrdU/Hoechst quenching assay, cell kinetic FACS analysis (G1 cell cycle arrest). Format: cell-based. The conditions noted are these: incubation for 24 h; for percentage of QG56 cells arrested in the first G1 phase, compared with reference compound: 3 μM; for n-fold increase of cells arrested in first cell cycle: compound concentration 3 μM, QG56 squamous cell carcinoma cells, Control (DMSO) = 1. How it is done: A squamous cell carcinoma cell line (e.g. QG 56) was cultivated in DMEM/10%FCS/2 mM glutamine at about 60% confluency. Exponentially growing cells were seeded at a density of 1×10^4 cells/cm^2 in 2 ml of medium per 6 wells. After 24 hours medium was replaced and compounds were added.
For the BrdU/Hoechst quenching assay the media were supplemented with […] and deoxycytidine, respectively. All experiments were performed in 6 well culture plates.
The cell culture setup is as described above. All compounds were dissolved in DMSO at a concentration of 10 mM.
Adherent cells were harvested at 24 h by trypsinization and cells from the supernatant were added to the population.
After centrifugation cell pellets were resuspended at 1-10×10^5 cells/ml in DNA-staining puffer (100 mM Tris pH 7.4, 154 mM NaCl, 1 mM CaCl2, 0.5 mM MgCl2, 0.2% BSA, 0.1% NP40) supplemented with 5 ug/ml RNAse A and 1.5 ug/ml Hoechst 33258. After 15 min propidium iodide was added to a final concentration of 1.5 ug/ml for another 15 min. The fluorochrome labeled cells were analysed on a flow cytometer (BD LSR) applying dual laser excitation (UV and 488 nm).
Compounds of Example 1, Example 2 and Example 4 were tested at a concentration of 3 μM.
In general terms: In flow cytometry, cells or beads pass a laser one at a time.

The structures appear in SMILES notation.

What is called melting point is the temperature of the solid-liquid transition. `COc1ccc(C=Cc2nc(COc3ccc(CCCCn4ccnn4)cc3)co2)cc1` [Example 1, 1-[4-(4-{2-[2-(4-Methoxy-phenyl)-vinyl]-oxazol-4-ylmethoxy}-phenyl)-butyl]-1H-[1,2,3]triazole]: the melting point was in the range of 148 to 151 °C. In addition, in the series on QG56 cells, the “percentage of QG56 cells arrested in the first G1 phase, compared with reference compound” value (shortened to “percentage of QG56 cells arrested”) is on record as “higher percentage” and the “n-fold increase of cells arrested in first cell cycle” value (shortened to “n-fold increase of cells arrested”) amounted to 23.7 n-fold.

`FC(F)(F)Oc1ccc(C=Cc2nc(COc3ccc(CCCCn4ccnn4)cc3)co2)cc1` [Example 2, 1-[4-(4-{2-[2-(4-Trifluoromethoxy-phenyl)-vinyl]-oxazol-4-ylmethoxy}-phenyl)-butyl]-1H-[1,2,3]triazole] yielded a melting point of 138 to 140 °C. In addition, in the series on QG56 cells, the “percentage of QG56 cells arrested” value is “higher percentage” and the “n-fold increase of cells arrested” value came to 19.2 n-fold.

Regarding `C(=Cc1nc(COc2ccc(CCCCn3ccnn3)cc2)co1)c1ccc2c(c1)OCO2` [Example 4, 1-(4-{4-[2-(2-Benzo[1,3]dioxol-5-yl-vinyl)-oxazol-4-ylmethoxy]-phenyl}-butyl)-1H-[1,2,3]triazole], in the series with QG56 cells, the “percentage of QG56 cells arrested” value is given as “higher percentage” and the “n-fold increase of cells arrested” value came to 17.9 n-fold.

Turning to `FC(F)(F)c1ccc(C=Cc2nc(COc3ccc(CCCCn4ccnn4)cc3)co2)cc1` [reference compound, 1-[4-(4-{2-[2-(4-Trifluoromethyl-phenyl)-vinyl]-oxazol-4-ylmethoxy}-phenyl)-butyl]-1H-[1,2,3]triazole, reference compound], the “n-fold increase of cells arrested” value in the series on QG56 cells was found to be 17.2 n-fold.

For `FC(F)(F)Sc1ccc(C=Cc2nc(COc3ccc(CCCCn4ccnn4)cc3)co2)cc1` [Example 5, 1-[4-(4-{2-[2-(4-Trifluoromethylsulfanyl-phenyl)-vinyl]-oxazol-4-ylmethoxy}-phenyl)-butyl]-1H-[1,2,3]triazole], the melting point was 144 to 145 °C.
